In the NIST ThermoML archive (doi:10.1007/s10765-009-0602-6):

Experiment: molar heat capacity at constant volume; xn = mol fraction of the nth substance listed
Details: x1 = 0.2607

N [ammonia] + O
Details	molar heat capacity at constant volume [J/K/mol]
600.42 K, Fluid (supercritical or subcritical phases), Mass density=309.95 kg/m3, isochoric heat capacity	99.2
600.43 K, Fluid (supercritical or subcritical phases), Mass density=301.94 kg/m3, isochoric heat capacity	108.54
600.45 K, Fluid (supercritical or subcritical phases), Mass density=308.35 kg/m3, isochoric heat capacity	94.94
600.48 K, Fluid (supercritical or subcritical phases), Mass density=299.79 kg/m3, isochoric heat capacity	116.67
600.48 K, Liquid, Isochoric heat capacity	116.67
600.5 K, Fluid (supercritical or subcritical phases), Mass density=299.79 kg/m3, isochoric heat capacity	112.59
600.5 K, Fluid (supercritical or subcritical phases), Mass density=303.47 kg/m3, isochoric heat capacity	94.55
600.51 K, Fluid (supercritical or subcritical phases), Mass density=301.94 kg/m3, isochoric heat capacity	105.98
600.51 K, Fluid (supercritical or subcritical phases), Mass density=309.95 kg/m3, isochoric heat capacity	100.78
600.59 K, Fluid (supercritical or subcritical phases), Mass density=299.79 kg/m3, isochoric heat capacity	104.74
600.59 K, Fluid (supercritical or subcritical phases), Mass density=301.94 kg/m3, isochoric heat capacity	99.68
600.59 K, Fluid (supercritical or subcritical phases), Mass density=303.47 kg/m3, isochoric heat capacity	94.4
600.59 K, Fluid (supercritical or subcritical phases), Mass density=309.95 kg/m3, isochoric heat capacity	100.97
600.62 K, Fluid (supercritical or subcritical phases), Mass density=308.35 kg/m3, isochoric heat capacity	91.03
600.63 K, Fluid (supercritical or subcritical phases), Mass density=297.6 kg/m3, isochoric heat capacity	114.9
600.63 K, Liquid, Isochoric heat capacity	114.9
600.66 K, Fluid (supercritical or subcritical phases), Mass density=303.47 kg/m3, isochoric heat capacity	95.13
600.67 K, Fluid (supercritical or subcritical phases), Mass density=299.79 kg/m3, isochoric heat capacity	101.47
600.69 K, Fluid (supercritical or subcritical phases), Mass density=309.95 kg/m3, isochoric heat capacity	95.49
600.72 K, Fluid (supercritical or subcritical phases), Mass density=297.6 kg/m3, isochoric heat capacity	112.64
600.77 K, Fluid (supercritical or subcritical phases), Mass density=297.6 kg/m3, isochoric heat capacity	109.73
600.77 K, Fluid (supercritical or subcritical phases), Mass density=299.79 kg/m3, isochoric heat capacity	98.67
600.77 K, Fluid (supercritical or subcritical phases), Mass density=305.44 kg/m3, isochoric heat capacity	101.79
600.8 K, Fluid (supercritical or subcritical phases), Mass density=308.35 kg/m3, isochoric heat capacity	92.66
600.81 K, Fluid (supercritical or subcritical phases), Mass density=294.44 kg/m3, isochoric heat capacity	113.83
600.81 K, Liquid, Isochoric heat capacity	113.83
600.85 K, Fluid (supercritical or subcritical phases), Mass density=294.44 kg/m3, isochoric heat capacity	111.38
600.85 K, Fluid (supercritical or subcritical phases), Mass density=297.6 kg/m3, isochoric heat capacity	105.54
600.85 K, Fluid (supercritical or subcritical phases), Mass density=305.44 kg/m3, isochoric heat capacity	96.13
600.86 K, Fluid (supercritical or subcritical phases), Mass density=299.79 kg/m3, isochoric heat capacity	99.55
600.9 K, Fluid (supercritical or subcritical phases), Mass density=342.18 kg/m3, isochoric heat capacity	88.83
600.93 K, Fluid (supercritical or subcritical phases), Mass density=292.97 kg/m3, isochoric heat capacity	112.06
600.93 K, Liquid, Isochoric heat capacity	112.06
600.94 K, Fluid (supercritical or subcritical phases), Mass density=292.97 kg/m3, isochoric heat capacity	106.05
600.94 K, Fluid (supercritical or subcritical phases), Mass density=294.44 kg/m3, isochoric heat capacity	103.91
600.94 K, Fluid (supercritical or subcritical phases), Mass density=297.6 kg/m3, isochoric heat capacity	103.82
600.94 K, Fluid (supercritical or subcritical phases), Mass density=305.44 kg/m3, isochoric heat capacity	99.89
600.94 K, Fluid (supercritical or subcritical phases), Mass density=320.33 kg/m3, isochoric heat capacity	94.88
600.98 K, Fluid (supercritical or subcritical phases), Mass density=308.35 kg/m3, isochoric heat capacity	89.18
601.02 K, Fluid (supercritical or subcritical phases), Mass density=305.44 kg/m3, isochoric heat capacity	99.43
601.02 K, Fluid (supercritical or subcritical phases), Mass density=320.33 kg/m3, isochoric heat capacity	95.95
601.02 K, Fluid (supercritical or subcritical phases), Mass density=342.18 kg/m3, isochoric heat capacity	87.43
601.04 K, Fluid (supercritical or subcritical phases), Mass density=292.97 kg/m3, isochoric heat capacity	101.74
601.05 K, Fluid (supercritical or subcritical phases), Mass density=291.16 kg/m3, isochoric heat capacity	111.35
601.05 K, Liquid, Isochoric heat capacity	111.35
601.08 K, Fluid (supercritical or subcritical phases), Mass density=291.16 kg/m3, isochoric heat capacity	105.11
601.11 K, Fluid (supercritical or subcritical phases), Mass density=292.97 kg/m3, isochoric heat capacity	94.42
601.11 K, Fluid (supercritical or subcritical phases), Mass density=301.94 kg/m3, isochoric heat capacity	97.37
601.11 K, Fluid (supercritical or subcritical phases), Mass density=305.44 kg/m3, isochoric heat capacity	95.1
601.11 K, Fluid (supercritical or subcritical phases), Mass density=320.33 kg/m3, isochoric heat capacity	90.05
601.12 K, Fluid (supercritical or subcritical phases), Mass density=291.16 kg/m3, isochoric heat capacity	93.41
601.16 K, Fluid (supercritical or subcritical phases), Mass density=188.05 kg/m3, isochoric heat capacity	106.16
601.16 K, Liquid, Isochoric heat capacity	102.61
601.19 K, Fluid (supercritical or subcritical phases), Mass density=301.94 kg/m3, isochoric heat capacity	94.4
601.19 K, Fluid (supercritical or subcritical phases), Mass density=305.44 kg/m3, isochoric heat capacity	94.51
601.19 K, Fluid (supercritical or subcritical phases), Mass density=320.33 kg/m3, isochoric heat capacity	88.79
601.2 K, Fluid (supercritical or subcritical phases), Mass density=188.05 kg/m3, isochoric heat capacity	93.94
601.21 K, Fluid (supercritical or subcritical phases), Mass density=291.16 kg/m3, isochoric heat capacity	94.65
601.21 K, Fluid (supercritical or subcritical phases), Mass density=292.97 kg/m3, isochoric heat capacity	99.73
601.24 K, Fluid (supercritical or subcritical phases), Mass density=342.18 kg/m3, isochoric heat capacity	88.83
601.28 K, Fluid (supercritical or subcritical phases), Mass density=320.33 kg/m3, isochoric heat capacity	91.03
601.29 K, Fluid (supercritical or subcritical phases), Mass density=301.94 kg/m3, isochoric heat capacity	98.17
601.3 K, Fluid (supercritical or subcritical phases), Mass density=188.05 kg/m3, isochoric heat capacity	86.48
601.34 K, Fluid (supercritical or subcritical phases), Mass density=285.71 kg/m3, isochoric heat capacity	107.97
601.34 K, Fluid (supercritical or subcritical phases), Mass density=301.94 kg/m3, isochoric heat capacity	95.7
601.34 K, Liquid, Isochoric heat capacity	107.97
601.37 K, Fluid (supercritical or subcritical phases), Mass density=285.71 kg/m3, isochoric heat capacity	99.59
601.37 K, Fluid (supercritical or subcritical phases), Mass density=294.44 kg/m3, isochoric heat capacity	105.52
601.37 K, Fluid (supercritical or subcritical phases), Mass density=297.6 kg/m3, isochoric heat capacity	102.84
601.37 K, Fluid (supercritical or subcritical phases), Mass density=342.18 kg/m3, isochoric heat capacity	89.33
601.38 K, Fluid (supercritical or subcritical phases), Mass density=188.05 kg/m3, isochoric heat capacity	66.72
601.39 K, Fluid (supercritical or subcritical phases), Mass density=291.16 kg/m3, isochoric heat capacity	92.22
601.45 K, Fluid (supercritical or subcritical phases), Mass density=285.71 kg/m3, isochoric heat capacity	94.44
601.45 K, Fluid (supercritical or subcritical phases), Mass density=294.44 kg/m3, isochoric heat capacity	102.41
601.45 K, Fluid (supercritical or subcritical phases), Mass density=297.6 kg/m3, isochoric heat capacity	99.66
601.45 K, Fluid (supercritical or subcritical phases), Mass density=301.94 kg/m3, isochoric heat capacity	92.5
601.46 K, Fluid (supercritical or subcritical phases), Mass density=299.79 kg/m3, isochoric heat capacity	97
601.47 K, Fluid (supercritical or subcritical phases), Mass density=320.33 kg/m3, isochoric heat capacity	92.7
601.5 K, Fluid (supercritical or subcritical phases), Mass density=188.05 kg/m3, isochoric heat capacity	72.1
601.53 K, Fluid (supercritical or subcritical phases), Mass density=299.79 kg/m3, isochoric heat capacity	99
601.54 K, Fluid (supercritical or subcritical phases), Mass density=285.71 kg/m3, isochoric heat capacity	89.22
601.54 K, Fluid (supercritical or subcritical phases), Mass density=297.6 kg/m3, isochoric heat capacity	101.22
